Read-outs that look alike come from different tables or passages of the source. Non-standard residues stand in square brackets, D forms with d. Residues, ends and D or L forms follow the SMILES beside them. Phe(ol) = N[C@H](CO)Cc1ccccc1
Key:
Assay type in all cases: binding
XIAP-BIR3 = biological target: T1, XIAP-BIR3 (Homo sapiens, UniProt P98170); assay: fluorescence polarization competition assay, XIAP-BIR3
T1 construct: X-IAP BIR3 (amino acids residues 241-356); made in house; host or cells: Escherichia coli BL21 (DE3)
T1 sequence (P98170 241-356): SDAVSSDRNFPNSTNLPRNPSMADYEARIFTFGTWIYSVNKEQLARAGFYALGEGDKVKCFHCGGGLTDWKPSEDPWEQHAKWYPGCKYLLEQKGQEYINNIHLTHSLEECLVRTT
Method: (§1) The apparent Kd values can be determined from the EC50 values.
(§2) The vectors pET15b-XIAPBIR2C202AC218G, pET15b-XIAPBIR3, and pET15b-MLIAPBIR were introduced into Escherichia coli strain BL21 (DE3). Overnight cultures were diluted 1:100 and grown at 30° C. in LB media with […] to an A600 of 0.5-0.7 with vigorous shaking. Isopropyl b-D-thiogalactoside (IPTG) was added to a final concentration of 1 mM and cultures were grown for 4 hours at 30° C. One litre of frozen cell pellet was resuspended in 100 ml Buffer A (50 mM Tris [pH 8.0], 300 mM NaCl, 5 mM b-mercaptoethanol, 0.5 mM PMSF, 2 mM benzamidine) with 5 mM imidazole and placed on ice for 30 minutes. Cells were lysed by homogenizing followed by repeated passes through a microfluidizer. Lysate was cleared by centrifugation at 15,000 rpm for 30 minutes. The supernatant was loaded onto a Ni-agarose column (Qiagen), washed with 10 column volumes Buffer A with 10 mM imidazole, and eluted with 10 column volumes Buffer A with 300 mM imidazole. Fractions containing BIR protein were pooled. Final concentrations of 5 mM DTT and 100 mM zinc acetate were added. The pool was concentrated and loaded on a Superdex 75™ (Pharmacia) sizing column. Protein eluted over one column volume into 50 mM Tris 8.0, 300 mM NaCl, 0.5 mM PMSF, 2 mM benzamidine, 5 mM DTT, 50 mM zinc acetate, 1 mM sodium azide. Fractions containing BIR protein were pooled and dialyzed against 4 changes of buffer containing 50 mM Tris (pH 8.0), 120 mM NaCl, 5 mM DTT, 0.5 mM PMSF, 2 mM benzamidine, 50 mM zinc acetate, 1 mM sodium azide. Protein was concentrated and stored at −80° C. for further characterization.
(§3) The apparent Kd values were determined from the EC50 values. […] Samples were read after a 10-minute incubation.

XIAP-BIR2 = biological target: T2, XIAP-BIR2 (Homo sapiens, UniProt P98170, C202A/C213G); assay: fluorescence polarization competition assay, XIAP-BIR2
T2 construct: X-IAP BIR2 (amino acid residues 124-240 with mutations C202A and C213G); made in house; host or cells: Escherichia coli BL21 (DE3)
T2 sequence (P98170 124-240 C202A/C213G): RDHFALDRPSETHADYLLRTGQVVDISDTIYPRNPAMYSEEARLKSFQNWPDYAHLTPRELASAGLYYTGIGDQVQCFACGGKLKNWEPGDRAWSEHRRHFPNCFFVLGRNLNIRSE
Method: as §1, §2, §3

ML-IAP-BIR = biological target: T3, ML-IAP-BIR (Homo sapiens, UniProt Q96CA5); assay: fluorescence polarization competition assay, ML-IAP-BIR
T3 construct: made in house; host or cells: Escherichia coli BL21 (DE3)
T3 sequence (Q96CA5 63-179): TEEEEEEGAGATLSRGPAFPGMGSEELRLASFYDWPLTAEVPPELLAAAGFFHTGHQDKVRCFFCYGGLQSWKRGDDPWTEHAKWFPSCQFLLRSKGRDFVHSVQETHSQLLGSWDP
Method: as §1, §2, §3

[1] = Table 4, P4 amino acid/phenylethylamine scan, Hid-FAM probe

| SMILES | Ki (ML-IAP-BIR; [1]) [nM] | other results |
| --- | --- | --- |
| CC(C)[C@H](NC(=O)[C@H](C)NC(=O)[C@H](CCC(=O)O)NC(=O)[C@H](C)N)C(=O)N1CCC[C@H]1C(=O)N[C@@H](Cc1c[nH]c2ccccc12)C(=O)N[C@@H](CCCCN)C(=O)N[C@@H](CO)C(=O)N[C@@H](CCC(=O)O)C(=O)O | – | Ki (XIAP-BIR3): > 64000 nM; Ki (XIAP-BIR2): 3600 nM |
| CC(C)[C@H](NC(=O)[C@H](C)NC(=O)[C@H](CCC(N)=O)NC(=O)[C@H](C)N)C(=O)N[C@@H](C)C(=O)N[C@@H](Cc1c[nH]c2ccccc12)C(=O)N[C@@H](CCCCN)C(=O)N[C@@H](CO)C(=O)N[C@@H](CCC(=O)O)C(=O)O | – | Ki (ML-IAP-BIR): 7000 nM |
| CC(C)[C@H](NC(=O)[C@H](C)N)C(=O)NCC(=O)N[C@H](C(=O)N1CCC[C@H]1C(=O)N[C@@H](Cc1c[nH]c2ccccc12)C(=O)N[C@@H](CCCCN)C(=O)N[C@@H](CO)C(=O)N[C@@H](CCC(=O)O)C(=O)O)C(C)C | – | Ki (ML-IAP-BIR): 6000 nM |
| CC[C@H](C)[C@H](NC(=O)[C@H](Cc1c[nH]c2ccccc12)NC(=O)[C@@H]1CCCN1C(=O)[C@@H](NC(=O)[C@H](C)N)C(C)C)C(=O)NCC(=O)N[C@@H](CCCCN)C(=O)N[C@@H](CO)C(=O)N[C@@H](CCC(=O)O)C(=O)O | – | Ki (ML-IAP-BIR): 330 nM |
| CC(C)[C@H](NC(=O)[C@H](C)N)C(=O)N1CCC[C@H]1C(=O)N[C@@H](Cc1ccccc1)C(=O)O [AVPF] (H-AVPF-OH; N-terminus assumed) | 90 | – |
| CC[C@H](C)[C@H](NC(=O)[C@@H]1CCCN1C(=O)[C@@H](NC(=O)[C@H](C)N)C(C)C)C(=O)O [AVPI] | 330 | – |
| CC(C)[C@H](NC(=O)[C@H](C)N)C(=O)N1CCC[C@H]1C(=O)NCC(c1ccccc1)c1ccccc1 [AVPX24] | 30 | – |
| CC(C)[C@H](NC(=O)[C@H](C)N)C(=O)N1CCC[C@H]1C(=O)N[C@@H](CO)[C@@H](O)c1ccccc1 [AVPX25] | 1500 | – |
| CC(C)[C@H](NC(=O)[C@H](C)N)C(=O)N1CCC[C@H]1C(=O)NCCc1cccc(C(F)(F)F)c1 [AVPX26] | 1900 | – |
| CC(C)[C@H](NC(=O)[C@H](C)N)C(=O)N1CCC[C@H]1C(=O)N[C@H](CO)[C@H](O)c1ccccc1 [AVPX27] | 410 | – |
| CC(C)[C@H](NC(=O)[C@H](C)N)C(=O)N1CCC[C@H]1C(=O)N[C@@H]1C[C@H]1c1ccccc1 [AVPX28a] | 850 | Ki (XIAP-BIR3; [1]): 7600 nM |
| CC(C)[C@H](NC(=O)[C@H](C)N)C(=O)N1CCC[C@H]1C(=O)N[C@H]1C[C@@H]1c1ccccc1 [AVPX28b] | 1000 | Ki (XIAP-BIR3; [1]): 1400 nM |
| CC(CNC(=O)[C@@H]1CCCN1C(=O)[C@@H](NC(=O)[C@H](C)N)C(C)C)c1ccccc1 (some centres unmarked) [AVPX31] | 270 | – |
| CC(C)[C@H](NC(=O)[C@H](C)N)C(=O)N1CCC[C@H]1C(=O)N[C@H](CO)Cc1ccccc1 [AVPX32] (H-AVP[Phe(ol)]; N-terminus assumed) | 90 | Ki (XIAP-BIR3; [1]): 390 nM; Ki (XIAP-BIR2; [1]): 441000 nM |
| CC(C)[C@H](NC(=O)[C@H](C)N)C(=O)N1CCC[C@H]1C(=O)NC[C@H](O)c1ccccc1 [AVPX33] | 310 | – |
| CCOc1cccc(CCNC(=O)[C@@H]2CCCN2C(=O)[C@@H](NC(=O)[C@H](C)N)C(C)C)c1 [AVPX34] | 780 | – |
| COc1ccc(Br)cc1CCNC(=O)[C@@H]1CCCN1C(=O)[C@@H](NC(=O)[C@H](C)N)C(C)C [AVPX36] | 1300 | – |
| CC(C)[C@H](NC(=O)[C@H](C)N)C(=O)N1CCC[C@H]1C(=O)NCCc1cccc(F)c1 [AVPX37] | 870 | – |

Reference: US20120058953A1, “COMPOSITIONS AND METHODS FOR ENHANCING APOPTOSIS” (Genentech, Inc., priority 2003, published 2012)
